From patent publication US6566355B1 (Hoffmann-La Roche Inc., priority 1991, dated 2003) come the findings set out here.

Where a name gives a salt, the structure may show the parent alone. Read-outs that look alike come from different tables or passages of the source.

A word on the MIC: it is the lowest concentration that inhibits growth of the organism.

The target in assay [1] is T1, β-lactamase (Citrobacter freundii, UniProt P05193).
T1 construct: Various β-lactamases can be isolated from penicillin- or cephalosporin-resistant bacterial strains such as; endogenous in cells; host or cells: Citrobacter freundii 1203 (enzyme purified from the crude cell extract, after ampicillin induction when necessary)
T1 sequence (P05193 21-381): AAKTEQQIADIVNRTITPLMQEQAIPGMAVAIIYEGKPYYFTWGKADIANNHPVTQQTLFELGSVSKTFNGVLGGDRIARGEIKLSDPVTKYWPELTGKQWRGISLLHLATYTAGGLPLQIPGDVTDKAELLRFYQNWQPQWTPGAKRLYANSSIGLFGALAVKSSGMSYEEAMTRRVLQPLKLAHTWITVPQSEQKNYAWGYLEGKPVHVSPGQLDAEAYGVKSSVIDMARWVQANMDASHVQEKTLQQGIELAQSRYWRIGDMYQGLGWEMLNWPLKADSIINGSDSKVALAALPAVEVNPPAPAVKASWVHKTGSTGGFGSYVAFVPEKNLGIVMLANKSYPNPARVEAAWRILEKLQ
In words: biochemical. In a few lines: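 β-lactamase from C. freundii 1203 crude extract (French press, 20 mM Tris-HCl pH 7.0) assayed with 0.1 mM nitrocefin in 50 mM phosphate pH 7.0 at 37° C, enzyme set to ΔA/min about 0.1, read at 482 nm. IC50 is inhibitor concentration giving 50% inhibition of nitrocefin cleavage, determined graphically.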

Assay [2] concerns Citrobacter freundii. In words: MIC in vitro of a 1:4 combination of ceftriaxone with a compound of formula I (test D). The assay is classed as cell-based. To be noted: 1:4 combination of ceftriaxone with the compound. As to the method: D. Determination of the β-lactamase-inhibiting activity by combination of a compound of general formula I with ceftriaxone
The minimum inhibitory concentration in vitro (MIC in μg/ml) of a 1:4 combination of ceftriaxone with a compound of formula I against Citrobacter freundii is measured and compiled in Table 2 hereinafter.

Where [3] appears, read: IC 50 nM, isolated β-lactamase of Citrobacter freundii, substrate nitrocefin 0.1 mM, 15 minutes pre-incubation with inhibitor, 37° C., pH 7.0.
The mark [4] stands for this setting: isolated β-lactamase of Citrobacter freundii, substrate nitrocefin 0.1 mM, 15 minutes pre-incubation with inhibitor, 37° C., pH 7.0, read-out: IC 50 nM.

Consider `COc1ccc(NC(=O)N2CC[C@@H]3[C@H]2C(=O)N3S(=O)(=O)[O-])cc1.[Na+]` [17(l), (1S,5R)-2-(4-Methoxyphenylcarbamoyl)-7-oxo-2,6-diazabicyclo[3.2.0]heptane-6-sulphonic acid sodium salt], for which, in assay [1] (setting [3]), the IC50 turned out to be 437 nM. The “MIC” value in assay [2] amounted to 4 µg/mL.

For `N[C@@H](C(=O)N1CC[C@@H]2[C@H]1C(=O)N2S(=O)(=O)O)c1cccc(O)c1` [6(p), (1S,5R)-2-[R-2-(m-Hydroxyphenyl)glycyl]-7-oxo-2,6-diazabicyclo[3.2.0]heptane-6-sulphonic acid], in assay [1], the IC50 is 56 nM. For the same molecule, the minimum inhibitory concentration (MIC) in assay [2] was determined as 2 µg/mL.

In assay [1] (setting [3]), `O=C(OCc1cccs1)N1CC[C@@H]2[C@H]1C(=O)N2S(=O)(=O)[O-].[Na+]` [17(n), (1S,5R)-7-Oxo-2-(thien-2-yl-methoxycarbonyl)-2,6-diazabicyclo[3.2.0]heptane-6-sulphonic acid sodium salt] yielded an IC50 of 272 nM. In addition, in assay [2], the “MIC” value turned out to be 16 µg/mL.

As for `N[C@@H](C(=O)N1CC[C@@H]2[C@H]1C(=O)N2S(=O)(=O)O)c1ccc(O)cc1` [6(d), (1S,5R)-2-[D-2-(p-Hydroxyphenyl)glycyl]-7-oxo-2,6-diazabicyclo[3.2.0]-heptane-6-sulphonic acid], the IC50 in assay [1] worked out at 500 nM. In addition, in assay [2], the “MIC” value came to 2 µg/mL.

In the case of `Nc1nc(CNC(=O)N2CC[C@@H]3[C@H]2C(=O)N3S(=O)(=O)[O-])cs1.[Na+]` [17(ae), (1S,5R)-2-[2-Amino-thiazol-4-ylmethylcarbamoyl]-7-oxo-2,6-diazabicyclo[3.2.0]heptane-6-sulfonic acid sodium salt], the IC50 in assay [1] (setting [3]) is 200 nM. Besides, the “MIC” value in assay [2] is 1 µg/mL.

In the case of `Cn1cnnc1SCC(=O)N1CC[C@@H]2[C@H]1C(=O)N2S(=O)(=O)[O-].[Na+]` [23(b), (1S,5R)-2-(4-Methyl-4H-1,2,4-triazol-3-ylsulfanylacetyl)-7-oxo-2,6-diazabicyclo[3.2.0]heptane-6-sulfonic acid sodium salt], in assay [1] (setting [3]), the IC50 came to 50 nM. For the same molecule, in assay [2], the “MIC” value was determined as 0.5 µg/mL.

Turning to `O=C(NC1CCS(=O)(=O)C1)N1CC[C@@H]2[C@H]1C(=O)N2S(=O)(=O)[O-].[Na+]` (mixture of isomers) [17(x), (1S,5R)-2-[(R) and (S)-1,1-Dioxo-tetrahydrothiophen-3-ylcarbamoyl]-7-oxo-2,6-diaza-bicyclo[3.2.0]heptane-6-sulfonic acid sodium salt], the IC50 in assay [1] (setting [3]) amounted to 199 nM. The minimal inhibitory concentration (MIC) in assay [2] worked out at 2 µg/mL.

With “Mixture of (1S,5R)-2-(5-Amino-1H-tetrazol-1-ylacetyl) and (1S,5R)-2-(5-Amino-2H-tetrazol-2-ylacetyl)-7-oxo-2,6-diazabicyclo[3.2.0]heptane-6-sulfonic acid sodium salt (1:2) [23(k)]”, in assay [1] (setting [4]), the IC50 turned out to be 273 nM. In addition, the minimal inhibitory concentration (MIC) in assay [2] was 2 µg/mL.

`NC(C(=O)N1CC[C@@H]2[C@H]1C(=O)N2S(=O)(=O)O)c1cccs1` (single isomer, unassigned) [5(e), (1S,5R)-2-[(R or S)-α-Amino-(2-thienyl)acetyl]-7-oxo-2,6-diazabicyclo[3.2.0]heptane-6-sulphonic acid] had an IC50 in assay [1] of 85 nM. Moreover, in assay [2], the “MIC” value amounted to 2 µg/mL.

Take “(1S,5R)-2-[(2-Amino-4-thiazolyl)acetyl]-7-oxo-2,6-diazabicyclo[3.2.0]heptane-6-sulphonic acid triethylamine salt [6(o)]”: in assay [1] (setting [4]), the IC50 is 350 nM. In addition, the “MIC” value in assay [2] was 2 µg/mL.

For the molecule `N[C@@H](Cc1c[nH]c2ccccc12)C(=O)N1CC[C@@H]2[C@H]1C(=O)N2S(=O)(=O)O` [6(h), (1S,5R)-7-Oxo-2-L-tryptophanyl-2,6-diazabicyclo[3.2.0]heptane-6-sulphonic acid], the IC50 in assay [1] was determined as 6 nM. Moreover, the “MIC” value in assay [2] stood at 1 µg/mL.

`O=C(Nc1nnc(SCC(=O)N2CC[C@@H]3[C@H]2C(=O)N3S(=O)(=O)[O-])s1)OCc1ccccc1.[Na+]` [23(i), (1S,5R)-2-(5-Benzyloxycarbonylamino-1,3,4-thiadiazol-2-ylsulfanyl-acetyl)-7-oxo-2,6-diazabicyclo[3.2.0]heptane-6-sulfonic acid sodium salt]: the IC50 in assay [1] (setting [3]) was determined as 70 nM. In addition, in assay [2], the “MIC” value is 1 µg/mL.

As to `O=C1[C@@H]2[C@@H](CCN2S(=O)(=O)Cc2ccccc2)N1S(=O)(=O)[O-].[Na+]` [11(d), (1S,5R)-2-(Benzylsulphonyl)-7-oxo-2,6-diazabicyclo [3.2.0]heptane-6-sulphonic acid sodium salt], the IC50 in assay [1] (setting [3]) stood at 142 nM. Also, the “MIC” value in assay [2] stood at 4 µg/mL.

With `O=C(CCC(=O)N1CC[C@@H]2[C@H]1C(=O)N2S(=O)(=O)O)NOCc1ccco1` [Example 19, sodium salt], the IC50 in assay [1] (setting [3]) is 430 nM. In addition, the “MIC” value in assay [2] came to 2 µg/mL.

`O=C1SCCC1NC(=O)N1CC[C@@H]2[C@H]1C(=O)N2S(=O)(=O)O` (mixture of isomers) [17(j), (1S,5R)-7-Oxo-2-(R,S)-(2-oxo-3-tetrahydrothienyl-carbamoyl)-2,6-diazabicyclo[3.2.0]heptane-6-sulphonic acid sodium salt] displayed an IC50 in assay [1] of 79 nM. For the same molecule, the “MIC” value in assay [2] was determined as 2 µg/mL.

`O=C(/C=C/c1ccco1)N1CC[C@@H]2[C@H]1C(=O)N2S(=O)(=O)O` [Example 5(a), (1S,5R)-2-[(E)-3-(2-Furyl)acryloyl-7-oxo-2,6-diazabicyclo[3.20]heptane-6-sulphonic acid sodium salt]: the IC50 in assay [1] was found to be 85 nM. Moreover, in assay [2], the “MIC” value was found to be 4 µg/mL.

Take `O=C(COc1ccc(O)nn1)N1CC[C@@H]2[C@H]1C(=O)N2S(=O)(=O)[O-].[Na+]` [5(p), (1S,5R)-2-[(6-Hydroxy-pyridazin-3-yloxy)-acetyl]-7-oxo-2,6-diazabicyclo[3.2.0]heptane-6-sulfonic acid sodium salt]: the IC50 in assay [1] (setting [3]) was determined as 178 nM. The “MIC” value in assay [2] was 1 µg/mL.

Consider `O=C(CSc1nc[nH]n1)N1CC[C@@H]2[C@H]1C(=O)N2S(=O)(=O)O` [12(b), (1S,5R)-7-Oxo-2-(1,2,4-triazol-3-yl-thioacetyl)-2,6-diazabicyclo[3.2.0]heptan-6-sulphonic acid], for which the IC50 in assay [1] (setting [4]) was determined as 115 nM. Further, the minimal inhibitory concentration (MIC) in assay [2] was 2 µg/mL.

As to `CC(=O)NC(C(=O)N1CC[C@@H]2[C@H]1C(=O)N2S(=O)(=O)O)c1ccccc1` (single isomer, unassigned) [5(g), (1S,5R)-2-[D- or L-N-Acetyl-2-phenylglycyl]-7-oxo-2,6-diazabicyclo[3.2.0]-heptane-6-sulphonic acid sodium salt], the IC50 in assay [1] turned out to be 150 nM. Further, the minimum inhibitory concentration (MIC) in assay [2] came to 8 µg/mL.

The molecule `O=C(CS(=O)(=O)c1ccc(O)c(O)c1)N1CC[C@@H]2[C@H]1C(=O)N2S(=O)(=O)O` [Example 20, (1S,5R)-2-[[(3,4-Dihydroxyphenyl)sulphonyl]acetyl]-7-oxo-2,6-diazabicyclo[3.2.0]heptane-6-sulphonic acid sodium salt] gave an IC50 in assay [1] (setting [3]) of 165 nM. Moreover, the “MIC” value in assay [2] is 4 µg/mL.

As to `O=C(/C=C/c1ccc(O)c(O)c1)N1CC[C@@H]2[C@H]1C(=O)N2S(=O)(=O)O` [6(u), (1S,5R)-(E)-2-[3-(3,4Dihydroxy)phenyl)acryloyl)]-7-oxo-2,6-diazabicyclo[3.2.0]heptane-6-sulfonic acid sodium salt], the IC50 in assay [1] was determined as 40 nM. In addition, in assay [2], the “MIC” value was 2 µg/mL.
